Measurements as given in patent publication US20180119123A1, “CRISPR/CAS-RELATED METHODS AND COMPOSITIONS FOR TREATING HIV INFECTION AND AIDS” (EDITAS MEDICINE, INC., priority 2015, published 2018).
Entries after “also recorded” stand apart in the source; their conditions may differ.

System: human mobilized peripheral blood CD34^+ HSCs
Assay: Viability by 7-AAD / Annexin-V flow cytometry 96 hours after Nucleofection
Type: cell-based
Experimental: Human CD34^+ HSCs cells from mobilized peripheral blood (AllCells) were thawed into StemSpan Serum-Free Expansion Medium (SFEM™, StemCell Technologies) containing 100 ng/mL each of the following cytokines: human stem cell factor (SCF), thrombopoietin (TPO), and flt-3 ligand (FL) (all from Peprotech). Cells were grown for 3 days in a humidified incubator and 5% CO2 20% O2. […] The published use of UM171 involved prolonged exposure of HSCs to the small molecule for ex vivo expansion of HSCs. In the current experiment, HSCs were exposed to UM171 for 2 hours before and 24 hours after delivery of Cas9 and gRNA plasmid DNA. This UM171 treatment protocol was based on pilot studies performed by the inventors that indicated acute pre-treatment with UM171 before lentivirus vector mediated gene delivery improved HSC viability compared to HSCs treated with vehicle (dimethylsulfoxide, DMSO, Sigma) alone. […] At 96 hours after Nucleofection™, CD34^+ cells were counted for by trypan blue exclusion and divided into 3 portions for the following analyses: a) flow cytometry analysis for assessment of viability by co-staining with 7-Aminoactinomycin-D (7-AAD) and allophycocyanin (APC)-conjugated Annexin-V antibody (ebioscience); b) flow cytometry analysis for maintenance of HSC phenotype (after co-staining with phycoerythrin (PE)-conjugated anti-human CD34 antibody and fluorescein isothicyanate (FITC)-conjugated anti-human CD90, both from BD Bioscience; c) hematopoietic colony forming cell (CFC) analysis by plating 1500 cells in semi-solid methylcellulose based Methocult medium (StemCell Technologies) that supports differentiation of erythroid and myeloid blood cell colonies from HSCs and serves as a surrogate assay to evaluate HSC multipotency and differentiation potential ex vivo; d) genomic DNA analysis for detection of editing at the CCR5 locus. […]

Cn1nnc(-c2ccc3c(c2)[nH]c2nc(Cc4ccccc4)nc(N[C@H]4CC[C@H](N)CC4)c23)n1 [UM171, (1r,4r)-N1-(2-benzyl-7-(2-methyl-2H-tetrazol-5-yl)-9H-pyrimido[4,5-b]indol-4-yl)cyclohexane-1,4-diamine]
Effect of UM171 on CD34+ HSC viability, survival and proliferation after Nucleofection (40 nM UM171, 2 hours before and 24 hours after Nucleofection with Cas9 and CCR5-U43 gRNA plasmid DNA): preserved CD34^+ HSC viability; also recorded: critical for maintenance of HSC survival and proliferation | Effect of UM171 on HSC survival and proliferation after Nucleofection (pre-treatment and short-term (24-hour) co-culture, Cas9 and CXCR4 gRNA plasmid DNA): critical for maintenance of HSC survival and proliferation
